Converted amounts (≈) assume the structure as drawn. “Also recorded” adds a separate entry of the source.
Tests used:
[1] = test system: mammary adenocarcinoma 16C tumor cells; assay: Mamma Adenocarcinoma 16C Cytotoxicity Assay; type: cell-based; conditions: ID50 ≤250 μg/mL assessed as cytostatically active
Protocol: (§1) 4-Acetamino-N-(2'-aminophenyl) benzamide was used as an example of a compound according to the present invention and compared with […] as standard, the outstanding inhibition action of which against various experimental tumors in vitro and in vivo is known. The testing was carried out in vivo with SD-rats against MNU-induced mammary adenocarcinoma and acetoxymethylmethylnitrosamine-induced (AMMN-induced) colon adenocarcinoma. The testing was carried out in vitro in the "colorimetric-cytotoxicity assay" using L1210 and mammary adenocarcinoma 16C tumor cells. In this test system, substances with ID50 values of ≤250 μg/mL are assessed as being cytostatically active.

[2] = test system: methylnitrosurea-induced (MNU-induced) mammary adenocarcinoma; assay: MNU-induced mammary adenocarcinoma in SD rats; type: in vivo, female SD rats
Protocol: FIGS. 5 and 6 show the antineoplastic effect of compounds A, B, C at equimolar doses (33 μmol/kg/day); is control; Δ is compound C (8.0 mg/kg), .smallcircle. is compound B (7.5 mg/kg), and .quadrature. is compound A (8.9 mg/kg).
as §1
The in vivo activity of 4-acetamino-N-(2'-aminophenyl)-benzamide was tested against primary mammary adenocarcinoma induced by 3 single IV administrations of methylnitrosurea on Days 50, 71, and 92 following birth in female SD rats. As soon as tumor volumes ≥0.8 cm^3 were reached, test animals were randomized and therapy was started. […] Median tumor volumes and numbers were determined weekly and compared with untreated controls.

[3] = Acute intragastral toxicity (LD50), 7-day observation; type: in vivo; conditions: male mice
L1210 tumor cells = assay: L1210 Colorimetric Cytotoxicity Assay; type: cell-based; conditions: for IC50: Mus musculus, L1210, ID50 ≤250 μg/mL assessed as cytostatically active
Protocol: as §1

[4] = Pharmacokinetic experiments on rats (plasma level, AUC, half-life, bioavailability); type: in vivo
Protocol: FIG. 1 is the AUC, rat, after administration of 4-acetamino-N-(2'-aminophenyl)benzamide. The * is intragastral administration (2 mg/kg; 10 mg/kg; 50 mg/kg). The * is intravenous administration (10 mg/kg).
In FIG. 2 the average plasma level of 4-amino-N-(2'-aminophenyl)-benzamide in rats after single administration of 10 mg/kg intragastrally (n=4).
The bioavailability of the active material according to the present invention is 100%. […] This is shown graphically in FIG. 1 of the accompanying drawings.

[5] = test system: acetoxymethylmethylnitrosamine-induced (AMMN-induced) colon adenocarcinoma; assay: AMMN-induced colon adenocarcinoma in SD rats; type: in vivo, Male SD-rats; conditions: for antineoplastic effect (in words): 10-week treatment, 5 days per week
Protocol: as §1
The activity of the compounds A, B, and C was tested in vivo against AMMN-induced colon adenocarcinoma. Male SD-rats were given 2 mg/kg/week acetoxymethylmethylnitrosamine (AMMN) intrarectally for a period of 10 weeks for tumor induction. Animals with manifest tumors were assigned randomly to the test groups.
^a Application via gastric tube, 5 days per week
The animals were examined twice daily. After the 10-week treatment period, the animals were sacrificed and a total necropsy performed. All tumors were individually measured and their volumes added to a total tumor volume.

## CC(C)C(=O)Nc1ccc(C(=O)Nc2ccccc2N)cc1 [4-isobutyrylamino-N-(2'-aminophenyl)-benzamide]
[1]
  IC50: 0.32 µg/mL (≈ 1.08 µM)

## Nc1ccccc1NC(=O)c1ccc(NC(=O)CO)cc1 [4-Glycoloylamino-N-(2'-aminophenyl)-benzamide]
[1]
  IC50: 0.62 µg/mL (≈ 2.17 µM)

## CC(=O)Nc1ccc(C(=O)Nc2ccccc2N)cc1 [Compound A, 4-Acetamino-N-(2'-aminophenyl)-benzamide]
[2]; 33 μmol/kg/day, A 8.9, B 7.5, C 8.0 mg/kg
  antineoplastic effect at equimolar doses (in words): shows the highest antineoplastic effect
[2]; FIG. 4, 7.5, 10, 12.5 mg/kg intragastrally, 5 times/week for 5 weeks
  tumor growth, dose dependence and inhibition (in words): affects tumor growth in a dose-dependent manner with almost complete tumor growth inhibition in the highest dose group
[1]
  IC50: 0.73 µg/mL (≈ 2.71 µM)
[3]; acute intragastral administration
  acute toxicity versus comparison standard (in words): considerably less toxic
[3]; mouse, in vivo, po, acute intragastral, n=4, 7-day observation
  LD50 at 168 h: 1600 mg/kg
L1210 tumor cells
  IC50: 3.75 µg/mL (≈ 13.9 µM)
L1210 tumor cells; Table 1: L1210 and mammary adenocarcinoma 16C, versus comparison standard
  cytostatic activity (in words): acts outstandingly cytostatically; also recorded: about the same or better as that of the comparison standard
[4]; rat, in vivo
  half-life: 4.2 to 4.5 h
  half-life time versus standard (in words): longer half-life time
[4]; rat, in vivo, po, 10 mg/kg
  bioavailability: 100%
[4]; rats
  intestinal resorption (in words): quickly, completely, and dosage-linearly
[5]; 7.0 mg/kg/day
  tumor growth (in words): completely inhibited further growth of colon carcinoma
[5]; 7.0 mg/kg/day, gastric tube, 10 weeks
  T/C: 11.1%
[5]; 11.9 mg/kg
  tumor growth inhibition (in words): the growth inhibition is much less
[5]; 11.9 mg/kg, gastric tube, 10 weeks
  T/C: about 5%
[5]; gastric tube
  antineoplastic effect (in words): very efficient

## Nc1ccccc1NC(=O)c1ccc(NC=O)cc1 [4-Formylamino-N-(2'-aminophenyl)-benzamide]
[1]
  IC50: 0.4 µg/mL (≈ 1.57 µM)

## Nc1ccccc1NC(=O)c1ccc(NC(=O)CCO)cc1 [4-(β-hydroxypropionylamino)-N-(2'-aminophenyl)-benzamide]
[1]
  IC50: 0.77 µg/mL (≈ 2.57 µM)

## CNc1ccc(C(=O)Nc2ccccc2N)cc1 [Compound C, 4-Methylamino-N-(2'-aminophenyl)-benzamide, reference compound]
L1210 tumor cells
  IC50: 4.04 µg/mL (≈ 16.7 µM)

## Nc1ccc(C(=O)Nc2ccccc2N)cc1 [Compound B, 4-Amino-N-(2'-aminophenyl)-benzamide, reference compound]
[1]
  IC50: 0.69 µg/mL (≈ 3.04 µM)
L1210 tumor cells
  IC50: 2.78 µg/mL (≈ 12.2 µM)
[4]; rat, in vivo, po, 10 mg/kg
  half-life: ~0.25 h
[5]; 5.9 mg/kg/day
  tumor growth (in words): arrest of tumor growth
[5]; 5.9 mg/kg/day=26 μmol/kg/day, gastric tube, 10 weeks
  relative median tumor volume T/C: 10.6%
[5]; gastric tube
  antineoplastic effect (in words): very efficient
